This is an account of results in patent publication US20100222322A1, “Non-Nucleoside Reverse Transcriptase Inhibitors” (MERCK & CO., INC., priority 2005, published 2010).

The structures appear in SMILES notation. Some results are limits rather than exact numbers.

For the first assay, the system named is HIV replication in T-lymphoid cells. The assay is described as follows: Spread assay: inhibition of acute HIV infection of T-lymphoid cells. The class given is cell-based. The following applies: Human immunodeficiency virus 1, T-lymphoid, read-out: IC95, spread assay (inhibition of HIV replication). How it is done:
An assay for the inhibition of acute HIV infection of T-lymphoid cells (alternatively referred to herein as the “spread assay”) was conducted in accordance with Vacca, J. P. et al., Proc. Natl. Acad. Sci. USA 1994, 91: 4096. […] The compounds of Examples 26, 29, 30, 33-35 and 62 were tested in the spread assay up to 10 micromolar, but specific IC95 values were not obtained; i.e., the IC95 values were greater than 10 micromolar. The compounds of Examples 47 and 61 were not tested.
As a reminder, the IC95 is the point of the concentration-response curve where the effect stands at 95%. Turning to `CCOC(=O)c1[nH]c2ccc(Br)cc2c1S(=O)(=O)N1CCCCC1` [Example 27, ethyl 5-bromo-3-(piperidin-1-ylsulfonyl)-1H-indole-2-carboxylate], the concentration for an effect of 95% (IC95) fell in the range of 1000 to 10000 nM.
Still for that read-out and setting: the value for `CCOC(=O)c1[nH]c2ccc(Br)cc2c1S(=O)(=O)NCCOC` [Example 28, ethyl 5-bromo-3-{[(2-methoxyethyl)amino]sulfonyl}-1H-indole-2-carboxylate] was below 1000 nM; that for `O=C1CN(S(=O)(=O)c2c(C(=O)NCCO)[nH]c3ccc(Br)cc23)CCN1` [Example 36, 5-bromo-N-(2-hydroxyethyl)-3-[(3-oxopiperazin-1-yl)sulfonyl]-1H-indole-2-carboxamide] was 1000 to 10000 nM; that for `CCOC(=O)c1[nH]c2ccc(Br)cc2c1S(=O)(=O)N1CCCC1C(F)(F)F` (stereo not drawn) [Example 30, ethyl 5-bromo-3-{[2-(trifluoromethyl)pyrrolidin-1-yl]sulfonyl}-1H-indole-2-carboxylate] was above 10000 nM.
As to `COC(=O)c1[nH]c2ccc(Br)cc2c1S(=O)(=O)NC1CCCC1` [Example 26, methyl 5-bromo-3-[(cyclopentylamino)sulfonyl]-1H-indole-2-carboxylate], the IC95 is above 10000 nM.
The same measure, in the same setting: the value for `CCOC(=O)c1[nH]c2ccc(Br)cc2c1S(=O)(=O)NC1CCCC1` [Example 29, ethyl 5-bromo-3-[(cyclopentylamino)sulfonyl]-1H-indole-2-carboxylate] was above 10000 nM.

The same assay, now with this note: Human immunodeficiency virus 1; acute HIV infection of T-lymphoid cells; tested up to 10 micromolar; read-out: IC95, spread assay (inhibition of HIV replication).
On to `NC(=O)c1[nH]c2ccc(Br)cc2c1S(=O)(=O)N1CCC(F)C1` (stereo not drawn) [Example 22, 5-bromo-3-[(3-fluoropyrrolidin-1-yl)sulfonyl]-1H-indole-2-carboxamide], for which the IC95 is below 1000 nM.
Same read-out and setting: under `CN1CCC(CNC(=O)c2[nH]c3ccc(Br)cc3c2S(=O)(=O)N2CCCC2)C1` (stereo not drawn) [Example 60, 5-bromo-N-[(1-methylpyrrolidin-3-yl)methyl]-3-(pyrrolidin-1-ylsulfonyl)-1H-indole-2-carboxamide] stands below 1000 nM.
Same read-out and setting: the value for `NC(=O)c1[nH]c2ccc(Br)cc2c1S(=O)(=O)NC1CCC1` [Example 44, 5-bromo-3-[(cyclobutylamino)sulfonyl]-1H-indole-2-carboxamide] was below 1000 nM; that for `O=C(NCc1ccccn1)c1[nH]c2ccc(Br)cc2c1S(=O)(=O)N1CCCC1` [Example 54, 5-bromo-N-(pyridin-2-ylmethyl)-3-(pyrrolidin-1-ylsulfonyl)-1H-indole-2-carboxamide] was below 1000 nM; that for `NS(=O)(=O)c1ccc(CNC(=O)c2[nH]c3ccc(Br)cc3c2S(=O)(=O)N2CCCC2)cc1` [Example 55, N-[4-(aminosulfonyl)benzyl]-5-bromo-3-(pyrrolidin-1-ylsulfonyl)-1H-indole-2-carboxamide] was below 1000 nM.
Still for that read-out and setting: under `NC(=O)c1[nH]c2ccc(Br)cc2c1S(=O)(=O)N1CCC(F)(F)C1` [Example 42, 5-bromo-3-[(3,3-difluoropyrrolidin-1-yl)sulfonyl]-1H-indole-2-carboxamide] stands below 1000 nM; under `O=C(NCc1ncc(-c2ccccc2)[nH]1)c1[nH]c2ccc(Br)cc2c1S(=O)(=O)N1CCCC1` [Example 62, 5-bromo-N-[(5-phenyl-1H-imidazol-2-yl)methyl]-3-(pyrrolidin-1-ylsulfonyl)-1H-indole-2-carboxamide], above 10000 nM.
For `NC(=O)c1[nH]c2ccc(Br)cc2c1S(=O)(=O)N1CCC(F)CC1` [Example 45, 5-bromo-3-[(4-fluoropiperidin-1-yl)sulfonyl]-1H-indole-2-carboxamide], the IC95 is below 1000 nM.
The same measure, in the same setting: the value for `NC(=O)c1[nH]c2ccc(-c3cccc4ncccc34)cc2c1S(=O)(=O)N1CCCC1` [Example 67, 3-(pyrrolidin-1-ylsulfonyl)-5-quinolin-5-yl-1H-indole-2-carboxamide] was below 1000 nM.
With `O=C(NCc1cccnc1)c1[nH]c2ccc(Br)cc2c1S(=O)(=O)N1CCCC1` [Example 50, 5-bromo-N-(pyridin-3-ylmethyl)-3-(pyrrolidin-1-ylsulfonyl)-1H-indole-2-carboxamide], the IC95 was below 1000 nM.
As to `O=C(NCCCn1ccnc1)c1[nH]c2ccc(Br)cc2c1S(=O)(=O)N1CCCC1` [Example 52, 5-bromo-N-[3-(1H-imidazol-1-yl)propyl]-3-(pyrrolidin-1-ylsulfonyl)-1H-indole-2-carboxamide], the IC95 was below 1000 nM.
On the same count and under the same terms, under `O=C(NCCO)c1[nH]c2ccc(Br)cc2c1S(=O)(=O)NC1CC1` [Example 33, 5-bromo-3-[(cyclopropylamino)sulfonyl]-N-(2-hydroxyethyl)-1H-indole-2-carboxamide] stands above 10000 nM; under `NC(=O)c1[nH]c2ccc(Br)cc2c1S(=O)(=O)N1CCC(F)(F)CC1` [Example 43, 5-bromo-3-[(4,4-difluoropiperidin-1-yl)sulfonyl]-1H-indole-2-carboxamide], below 1000 nM; under `COCCNC(=O)c1[nH]c2ccc(Br)cc2c1S(=O)(=O)N1CCCC1` [Example 56, 5-bromo-N-(2-methoxyethyl)-3-(pyrrolidin-1-ylsulfonyl)-1H-indole-2-carboxamide], below 1000 nM.
Consider `O=C(NCCc1cnc[nH]1)c1[nH]c2ccc(Br)cc2c1S(=O)(=O)N1CCCC1` [Example 49, 5-bromo-N-[2-(1H-imidazol-5-yl)ethyl]-3-(pyrrolidin-1-ylsulfonyl)-1H-indole-2-carboxamide], for which the IC95 is below 1000 nM.
As to `O=C(NCCO)c1[nH]c2ccc(Br)cc2c1S(=O)(=O)NC1CCCCC1` [Example 34, 5-bromo-3-[(cyclohexylamino)sulfonyl]-N-(2-hydroxyethyl)-1H-indole-2-carboxamide], the IC95 is above 10000 nM.
Same read-out and setting: the value for `NC(=O)c1[nH]c2ccc(Cl)cc2c1S(=O)(=O)N1CCCC(F)C1` (stereo not drawn) [Example 41, 5-chloro-3-[(3-fluoropiperidin-1-yl)sulfonyl]-1H-indole-2-carboxamide] was below 1000 nM; that for `NC(=O)c1[nH]c2ccc(Cl)cc2c1S(=O)(=O)NC1CCC1` [Example 3, 5-chloro-3-[(cyclobutylamino)sulfonyl]-1H-indole-2-carboxamide] was below 1000 nM; that for `NC(=O)c1[nH]c2ccc(Cl)cc2c1S(=O)(=O)N1CCC(F)CC1` [Example 46, 5-chloro-3-[(4-fluoropiperidin-1-yl)sulfonyl]-1H-indole-2-carboxamide] was below 1000 nM.
For the molecule `O=C(NCCO)c1[nH]c2ccc(Br)cc2c1S(=O)(=O)NC1CCCC1` [Example 35, 5-bromo-3-[(cyclopentylamino)sulfonyl]-N-(2-hydroxyethyl)-1H-indole-2-carboxamide], the IC95 is above 10000 nM.
Still for that read-out and setting: the value for `COC(=O)c1[nH]c2ccc(Br)cc2c1S(=O)(=O)N1CCCC1` [Example 25, methyl 5-bromo-3-(pyrrolidin-1-ylsulfonyl)-1H-indole-2-carboxylate] was below 1000 nM.
The same measure, in the same setting: under `CCCNS(=O)(=O)c1c(C(N)=O)[nH]c2ccc(Br)cc12` [Example 23, 5-bromo-3-[(propylamino)sulfonyl]-1H-indole-2-carboxamide] stands below 1000 nM.
Same read-out and setting: the value for `NC(=O)c1[nH]c2ccc(Cl)cc2c1S(=O)(=O)N1CCCC1C(F)(F)F` (stereo not drawn) [Example 40, 5-chloro-3-{[2-(trifluoromethyl)pyrrolidin-1-yl]sulfonyl}-1H-indole-2-carboxamide] was below 1000 nM; that for `O=C(NCc1cscn1)c1[nH]c2ccc(Br)cc2c1S(=O)(=O)N1CCCC1` [Example 57, 5-bromo-3-(pyrrolidin-1-ylsulfonyl)-N-(1,3-thiazol-4-ylmethyl)-1H-indole-2-carboxamide] was below 1000 nM.
Regarding `COC(=O)c1[nH]c2ccc(Br)cc2c1S(=O)(=O)N1CCCCC1` [Example 24, methyl 5-bromo-3-(piperidin-1-ylsulfonyl)-1H-indole-2-carboxylate], the IC95 is below 1000 nM.
For `NC(=O)c1[nH]c2ccc(Cl)cc2c1S(=O)(=O)N1CCC1` [Example 7, 3-(azetidin-1-ylsulfonyl)-5-chloro-1H-indole-2-carboxamide], the IC95 is below 1000 nM.
On the same count and under the same terms, under `O=C(NCc1nc2cccnc2[nH]1)c1[nH]c2ccc(Br)cc2c1S(=O)(=O)N1CCCC1` [Example 63, 5-bromo-N-(3H-imidazo[4,5-b]pyridin-2-ylmethyl)-3-(pyrrolidin-1-ylsulfonyl)-1H-indole-2-carboxamide] stands below 1000 nM; under `O=C(NCc1ccon1)c1[nH]c2ccc(Br)cc2c1S(=O)(=O)N1CCCC1` [Example 58, 5-bromo-N-(isoxazol-3-ylmethyl)-3-(pyrrolidin-1-ylsulfonyl)-1H-indole-2-carboxamide], below 1000 nM.
As for `COC1CCCN(S(=O)(=O)c2c(C(N)=O)[nH]c3ccc(Br)cc23)C1` (stereo not drawn) [Example 20, 5-bromo-3-[(3-methoxypiperidin-1-yl)sulfonyl]-1H-indole-2-carboxamide], the IC95 is below 1000 nM.
Still for that read-out and setting: the value for `C=Cc1ccc2[nH]c(C(N)=O)c(S(=O)(=O)N3CCCC3)c2c1` [Example 66, 3-(pyrrolidin-1-ylsulfonyl)-5-vinyl-1H-indole-2-carboxamide] was below 1000 nM.
